Results: patent US20260034113A1, “THIADIAZOLONE DERIVATIVES, COMPOSITIONS AND USES THEREOF” (Danatlas Pharmaceuticals Co., Ltd., priority 2023, published 2026)
Where two headings read alike, the source gives them in different places.

Molecular target: PolQ (1-899) (Homo sapiens (Human), UniProt O75417)
Assay: PolQ ATPase assay (ADP-Glo)
Assay type: biochemical
Experimental: The ability of the compounds of the present disclosure to inhibit ATPase activity of PolQ (1-899) was determined using the assay described below.
PolQ ATPase activity was determined by ADP-Glo assay. 10-point dilution series of compounds were used in a 384 well format for the inhibition assays. PolQ (1-899) (1 nM) in assay buffer (20 mM Tris HCl (pH 8.0), 80 mM KCl, 10 mM MgCl2, 1 mM DTT, 0.01% BSA, 0.01% Tween, 5% glycerol) was transferred to the test wells (20 uL), except the low control wells (20 μL of assay buffer was added to the low control wells). The plate was then incubated at room temperature for 30 min. An equal volume (20 μL) of 100 μM ATP, 150 nM ssDNA containing 50 thymine bases in assay buffer was added to all the test wells. The plates were covered and left to incubate for 60 min. at room temperature before the addition of the ADP Glo detection reagents. After 60 min. incubation, transfer 5 μL reaction mix to another 384-well plate and add 5 μL ADP Glo and plates incubated for 60 min. before addition of 10 μL kinase detection reagent. After the addition of the kinase detection reagent, the plates were covered and incubated for 60 min. and read luminescence on Envision
Percent inhibition was calculated as follows:
[formula] • where “Max” is the high control (DMSO) and “Min” is the no enzyme control.
IC50 values were calculated using a four-parameter logistic curve fit using the following formula: […]
IC50 values were determined by fitting the data to the standard 4 parameters with Hill Slope using GraphPad Prism software.

[1] = inhibition of ATPase activity of PolQ (1-899), 1 nM enzyme, 100 μM ATP, 150 nM ssDNA, ADP-Glo

PolQ (1-899), sequence (O75417 1-899): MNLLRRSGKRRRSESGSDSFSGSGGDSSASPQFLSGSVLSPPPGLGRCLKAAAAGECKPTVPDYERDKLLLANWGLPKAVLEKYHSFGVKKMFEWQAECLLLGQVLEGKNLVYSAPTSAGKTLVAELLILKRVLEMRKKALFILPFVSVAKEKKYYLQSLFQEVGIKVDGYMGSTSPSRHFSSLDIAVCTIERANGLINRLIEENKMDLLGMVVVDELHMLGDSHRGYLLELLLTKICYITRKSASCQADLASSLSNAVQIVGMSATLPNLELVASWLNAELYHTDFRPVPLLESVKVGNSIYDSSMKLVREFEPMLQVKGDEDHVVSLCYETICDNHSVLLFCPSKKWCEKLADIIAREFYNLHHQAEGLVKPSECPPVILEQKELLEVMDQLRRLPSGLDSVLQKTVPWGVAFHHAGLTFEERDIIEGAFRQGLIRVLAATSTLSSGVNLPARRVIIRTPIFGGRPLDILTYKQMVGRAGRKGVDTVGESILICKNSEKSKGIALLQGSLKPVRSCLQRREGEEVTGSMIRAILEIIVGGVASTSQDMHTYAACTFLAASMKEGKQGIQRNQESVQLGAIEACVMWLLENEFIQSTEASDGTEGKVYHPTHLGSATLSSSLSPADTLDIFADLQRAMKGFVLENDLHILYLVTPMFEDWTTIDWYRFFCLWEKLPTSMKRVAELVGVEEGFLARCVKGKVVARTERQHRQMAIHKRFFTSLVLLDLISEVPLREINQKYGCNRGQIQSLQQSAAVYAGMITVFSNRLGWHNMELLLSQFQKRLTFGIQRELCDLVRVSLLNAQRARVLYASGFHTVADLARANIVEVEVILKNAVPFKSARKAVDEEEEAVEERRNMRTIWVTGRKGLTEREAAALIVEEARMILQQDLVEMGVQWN

| Compound | IC50 [1] | IC50 |
| --- | --- | --- |
| COc1ccc(Cl)c(F)c1-c1cc(C)ncc1C(=O)Nc1nn(CC2CC(O)C2)c(=O)s1 (stereo not shown) [Example 17, 4-(3-Chloro-2-fluoro-6-methoxyphenyl)-N-(4-((3-hydroxycyclobutyl)methyl)-5-oxo-4,5-dihydro-1,3,4-thiadiazol-2-yl)-6-methylnicotinamide] | < 10 nM | – |
| COc1ccc(C(F)(F)F)c(F)c1-c1cc(C)ncc1C(=O)Nc1nn(CCCO)c(=O)s1 [Example 13, 4-(2-Fluoro-6-methoxy-3-(trifluoromethyl)phenyl)-N-(4-(3-hydroxypropyl)-5-oxo-4,5-dihydro-1,3,4-thiadiazol-2-yl)-6-methylnicotinamide] | < 10 nM | – |
| COc1ccc(Cl)c(F)c1-c1cc(C)ncc1C(=O)Nc1nn(CC(F)(F)F)c(=O)s1 [Example 2, 4-(3-Chloro-2-fluoro-6-methoxyphenyl)-6-methyl-N-(5-oxo-4-(2,2,2-trifluoroethyl)-4,5-dihydro-1,3,4-thiadiazol-2-yl)nicotinamide] | < 10 nM | – |
| COc1ccc(Cl)c(F)c1-c1cnccc1C(=O)Nc1nn(CCCCO)c(=O)s1 [Example 22, 3-(3-Chloro-2-fluoro-6-methoxyphenyl)-N-(4-(4-hydroxybutyl)-5-oxo-4,5-dihydro-1,3,4-thiadiazol-2-yl)isonicotinamide] | < 10 nM | – |
| COc1ccc(Cl)c(F)c1-c1cc(C)ncc1C(=O)Nc1nn(CC(=O)O)c(=O)s1 [Example 8, 2-(5-(4-(3-Chloro-2-fluoro-6-methoxyphenyl)-6-methylnicotinamido)-2-oxo-1,3,4-thiadiazol-3(2H)-yl)acetic acid] | < 10 nM | – |
| COc1ccc(Cl)c(F)c1-c1cc(C)ncc1C(=O)Nc1nn(CCO)c(=O)s1 [Example 6, 4-(3-Chloro-2-fluoro-6-methoxyphenyl)-N-(4-(2-hydroxyethyl)-5-oxo-4,5-dihydro-1,3,4-thiadiazol-2-yl)-6-methylnicotinamide] | < 10 nM | – |
| COc1ccccc1-n1cncc1C(=O)Nc1nn(CCCCO)c(=O)s1 [Example 23, N-(4-(4-Hydroxybutyl)-5-oxo-4,5-dihydro-1,3,4-thiadiazol-2-yl)-1-(2-methoxyphenyl)-1H-imidazole-5-carboxamide] | > 500 nM | – |
| COc1ccc(Cl)c(F)c1-c1cc(C)ncc1C(=O)Nc1nn(CCC(C)O)c(=O)s1 (stereo not shown) [Example 16, 4-(3-Chloro-2-fluoro-6-methoxyphenyl)-N-(4-(3-hydroxybutyl)-5-oxo-4,5-dihydro-1,3,4-thiadiazol-2-yl)-6-methylnicotinamide] | < 10 nM | – |
| COc1ccc(Cl)cc1-c1cc(C)ncc1C(=O)Nc1nn(CCCCO)c(=O)s1 [Example 25, 4-(5-Chloro-2-methoxyphenyl)-N-(4-(4-hydroxybutyl)-5-oxo-4,5-dihydro-1,3,4-thiadiazol-2-yl)-6-methylnicotinamide] | < 10 nM | – |
| COc1cnc(Cl)cc1-c1cc(C)ncc1C(=O)Nc1nn(CCCCO)c(=O)s1 [Example 29, 2′-Chloro-N-(4-(4-hydroxybutyl)-5-oxo-4,5-dihydro-1,3,4-thiadiazol-2-yl)-5′-methoxy-6-methyl-[4,4′-bipyridine]-3-carboxamide] | – | 10 to 100 nM |
| COc1ccc(C(F)(F)F)c(F)c1-c1cc(C)ncc1C(=O)Nc1nn(CCCCO)c(=O)s1 [Example 27, 4-(2-Fluoro-6-methoxy-3-(trifluoromethyl)phenyl)-N-(4-(4-hydroxybutyl)-5-oxo-4,5-dihydro-1,3,4-thiadiazol-2-yl)-6-methylnicotinamide] | < 10 nM | – |
| COc1ccccc1-c1cc(C)ncc1C(=O)Nc1nn(CCCCO)c(=O)s1 [Example 24, N-(4-(4-Hydroxybutyl)-5-oxo-4,5-dihydro-1,3,4-thiadiazol-2-yl)-4-(2-methoxyphenyl)-6-methylnicotinamide] | – | 10 to 100 nM |
| COc1ccc(Cl)c(F)c1-c1cc(C)ncc1C(=O)Nc1nn(CCn2cccn2)c(=O)s1 [Example 18, N-(4-(2-(1H-pyrazol-1-yl)ethyl)-5-oxo-4,5-dihydro-1,3,4-thiadiazol-2-yl)-4-(3-chloro-2-fluoro-6-methoxyphenyl)-6-methylnicotinamide] | < 10 nM | – |
| COCCCn1nc(NC(=O)c2cnc(C)cc2-c2c(OC)ccc(Cl)c2F)sc1=O [Example 4, 4-(3-Chloro-2-fluoro-6-methoxyphenyl)-N-(4-(3-methoxypropyl)-5-oxo-4,5-dihydro-1,3,4-thiadiazol-2-yl)-6-methylnicotinamide] | < 10 nM | – |
| COc1ccc(Cl)c(F)c1-c1cc(C)ncc1C(=O)Nc1nn(CCCCO)c(=O)s1 [Example 14, 4-(3-Chloro-2-fluoro-6-methoxyphenyl)-N-(4-(4-hydroxybutyl)-5-oxo-4,5-dihydro-1,3,4-thiadiazol-2-yl)-6-methylnicotinamide] | < 10 nM | – |
| CCC(O)Cn1nc(NC(=O)c2cnc(C)cc2-c2c(OC)ccc(Cl)c2F)sc1=O (stereo not shown) [Example 21, 4-(3-Chloro-2-fluoro-6-methoxyphenyl)-N-(4-(2-hydroxybutyl)-5-oxo-4,5-dihydro-1,3,4-thiadiazol-2-yl)-6-methylnicotinamide] | < 10 nM | – |
| COc1ccc(Cl)c(F)c1-c1cc(C)ncc1C(=O)Nc1nn(CC(C)O)c(=O)s1 (stereo not shown) [Example 20, 4-(3-Chloro-2-fluoro-6-methoxyphenyl)-N-(4-(2-hydroxypropyl)-5-oxo-4,5-dihydro-1,3,4-thiadiazol-2-yl)-6-methylnicotinamide] | < 10 nM | – |
| COCCn1nc(NC(=O)c2cnc(C)cc2-c2c(OC)ccc(Cl)c2F)sc1=O [Example 1, 4-(3-Chloro-2-fluoro-6-methoxyphenyl)-N-(4-(2-methoxyethyl)-5-oxo-4,5-dihydro-1,3,4-thiadiazol-2-yl)-6-methylnicotinamide] | < 10 nM | – |
| COc1ccc(Cl)c(F)c1-c1cc(C)ncc1C(=O)Nc1nn(CCC(C)(C)O)c(=O)s1 [Example 15, 4-(3-Chloro-2-fluoro-6-methoxyphenyl)-N-(4-(3-hydroxy-3-methylbutyl)-5-oxo-4,5-dihydro-1,3,4-thiadiazol-2-yl)-6-methylnicotinamide] | < 10 nM | – |
| COc1ccc(Cl)c(F)c1-c1cc(C)ncc1C(=O)Nc1nn(CCCC#N)c(=O)s1 [Example 12, 4-(3-Chloro-2-fluoro-6-methoxyphenyl)-N-(4-(3-cyanopropyl)-5-oxo-4,5-dihydro-1,3,4-thiadiazol-2-yl)-6-methylnicotinamide] | < 10 nM | – |
| CCn1nc(NC(=O)c2cnc(C)cc2-c2c(OC)ccc(Cl)c2F)sc1=O [Example 3, 4-(3-Chloro-2-fluoro-6-methoxyphenyl)-N-(4-ethyl-5-oxo-4,5-dihydro-1,3,4-thiadiazol-2-yl)-6-methylnicotinamide] | < 10 nM | – |
| COc1ccc(Cl)c(F)c1-c1cc(C)ncc1C(=O)Nc1nn(CC(=O)N2CC[C@@H](N(C)C)C2)c(=O)s1 [Example 9, 4-(3-Chloro-2-fluoro-6-methoxyphenyl)-N-(4-(2-((R)-3-(dimethylamino)pyrrolidin-1-yl)-2-oxoethyl)-5-oxo-4,5-dihydro-1,3,4-thiadiazol-2-yl)-6-methylnicotinamide] | – | 10 to 100 nM |
| COc1ccc(Cl)c(F)c1-c1cc(C)ncc1C(=O)Nc1nn(CC(=O)N2CC[C@H](N(C)C)C2)c(=O)s1 [Example 10, 4-(3-Chloro-2-fluoro-6-methoxyphenyl)-N-(4-(2-((S)-3-(dimethylamino)pyrrolidin-1-yl)-2-oxoethyl)-5-oxo-4,5-dihydro-1,3,4-thiadiazol-2-yl)-6-methylnicotinamide] | – | 10 to 100 nM |
| COCCCCn1nc(NC(=O)c2cnc(C)cc2-c2c(OC)ccc(Cl)c2F)sc1=O [Example 5, 4-(3-Chloro-2-fluoro-6-methoxyphenyl)-N-(4-(4-methoxybutyl)-5-oxo-4,5-dihydro-1,3,4-thiadiazol-2-yl)-6-methylnicotinamide] | < 10 nM | – |
| COc1ccc(Cl)c(F)c1-c1cc(C)ncc1C(=O)Nc1nn(CCC#N)c(=O)s1 [Example 11, 4-(3-Chloro-2-fluoro-6-methoxyphenyl)-N-(4-(2-cyanoethyl)-5-oxo-4,5-dihydro-1,3,4-thiadiazol-2-yl)-6-methylnicotinamide] | < 10 nM | – |
| COc1ccc(Cl)c(F)c1-c1cc(-c2ccn(C)n2)ncc1C(=O)Nc1nn(CCCCO)c(=O)s1 [Example 30, 4-(3-Chloro-2-fluoro-6-methoxyphenyl)-N-(4-(4-hydroxybutyl)-5-oxo-4,5-dihydro-1,3,4-thiadiazol-2-yl)-6-(1-methyl-1H-pyrazol-3-yl)nicotinamide] | < 10 nM | – |
| COc1ccc(C)c(F)c1-c1cc(C)ncc1C(=O)Nc1nn(CCCCO)c(=O)s1 [Example 28, 4-(2-Fluoro-6-methoxy-3-methylphenyl)-N-(4-(4-hydroxybutyl)-5-oxo-4,5-dihydro-1,3,4-thiadiazol-2-yl)-6-methylnicotinamide] | < 10 nM | – |
| COc1ccc(Cl)c(F)c1-c1cc(C)ncc1C(=O)Nc1nn(CCCO)c(=O)s1 [Example 7, 4-(3-Chloro-2-fluoro-6-methoxyphenyl)-N-(4-(3-hydroxypropyl)-5-oxo-4,5-dihydro-1,3,4-thiadiazol-2-yl)-6-methylnicotinamide] | < 10 nM | – |
